In PubChem BioAssay (NCI):
“And” between values parts separate entries of the source, which are not always exact repeats. Equal entries are not always repeated.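 Assay format: 96-well plates, 48-hour exposure. Here, GI50 denotes the concentration required for 50% inhibition of growth. The concentration for full growth arrest is given as TGI.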

Experiments:
Assay in all cases: NCI anticancer screen, dose series, 48 h
KM12 colon = test system: KM12 colon
A498 renal = test system: A498 renal
RPMI-8226 leukemia = test system: RPMI-8226 leukemia
IGROV1 ovarian = test system: IGROV1 ovarian
SNB-19 CNS = test system: SNB-19 CNS
M14 melanoma = test system: M14 melanoma
EKVX NSCLC = test system: EKVX NSCLC
ACHN renal = test system: ACHN renal
DU-145 prostate = test system: DU-145 prostate
OVCAR-3 ovarian = test system: OVCAR-3 ovarian
MDA-N = test system: MDA-N

Row | SMILES | TGI (KM12 colon) [µM] | TGI (A498 renal) | TGI (RPMI-8226 leukemia) [µM] | TGI (IGROV1 ovarian) | TGI (SNB-19 CNS) [µM] | TGI (M14 melanoma) [µM] | TGI (EKVX NSCLC) | TGI (ACHN renal) [µM] | TGI (DU-145 prostate) [µM] | TGI (OVCAR-3 ovarian) | TGI (MDA-N) [µM] | GI50 (KM12 colon) | GI50 (A498 renal) | GI50 (IGROV1 ovarian) | GI50 (OVCAR-3 ovarian) | GI50 (SNB-19 CNS) [µM] | GI50 (M14 melanoma) [µM] | GI50 (EKVX NSCLC) [µM] | GI50 (ACHN renal) [µM] | GI50 (DU-145 prostate) [µM]
1 | COc1cccc(CC(C)NCC(O)c2ccc(O)c(O)c2)c1 (centres undefined) | > 100 | > 100 µM | > 100 | > 100 µM | > 100 | > 100 | > 100 µM | > 100 | > 100 | > 100 µM | – | – | – | – | – | – | – | – | – | –
2 | CCOC(=O)C1(C(=O)OCC)[C@H](c2ccccc2)C2=NO[C@@H]3CCC[C@H]1[C@H]23 | > 100 | – | > 100 | > 100 µM | > 100 | > 100 | > 100 µM | > 100 | > 100 | 96.8 µM | > 100 | – | – | – | – | – | – | – | – | –
3 | Cc1ccc(C(C)(C)C[P+](C)(c2ccccc2)c2ccccc2)cc1 | > 45.7 | > 100 µM | 6.7 | > 100 µM | 89.3 | – | > 100 µM | – | – | 22.2 µM | – | – | – | – | – | – | – | – | – | –
4 | Clc1ccc(Cc2nc3ccccc3nc2-c2cccc(Br)c2)cc1 | 33.7 | – | 3.81 | 3.49 µM | 3.14 | 5.17 | 28.9 µM | 3.44 | 24.5 | 5.76 µM | 4.19 | – | – | – | – | – | – | – | – | –
5 | [Cl][Pt+2][Cl].[NH-]C1CCCCC1[NH-] (centres undefined) | > 100 | > 100 µM and 65.3 µM | > 50.5 | > 100 µM and 45.8 µM | > 100 | – | > 100 µM and 55.2 µM and 31.1 µM | – | – | > 59.4 µM and > 47.2 µM and 20.8 µM | – | 80.6 µM and > 72.1 µM and 10.6 µM | > 100 µM and 12.6 µM | 18.9 µM and 9.23 µM and 2.45 µM | 9.42 µM and 6.62 µM and 2.98 µM | – | – | – | – | –
6 | COC(=O)C1CCC(=O)N1C(=O)Cc1ccc(OC)cc1 (centres undefined) | > 100 | > 100 µM | – | > 100 µM | > 100 | > 100 | > 100 µM | > 100 | – | > 100 µM | – | – | – | – | – | – | – | – | – | –
7 | COc1cc2c(cc1OCCCC(=O)Nc1cc(C(=O)Nc3cc(C(=O)Nc4cc(C(=O)NCCCN(C)C)n(C)n4)n(C)n3)n(C)n1)N=CC1CCCN1C2=O (centres undefined) | 47 | 42.8 µM | > 100 | 7.98 µM | 54.4 | 95.2 | > 100 µM | 38.4 | > 100 | > 100 µM | – | – | – | – | – | – | – | – | – | –
8 | OCC1OC(n2cnc3cncnc32)C(O)C1O (centres undefined) | 6 | 3.69 µM | 7.95 | 4.81 µM | 4.27 | – | 4.18 µM | – | – | 4.94 µM | – | – | – | – | – | – | – | – | – | –
9 | C[C@@H](O)C(=O)N1[C@@H]2CC3CC[C@]2(CS1(=O)=O)C3(C)C | > 100 | – | > 100 | > 100 µM | > 100 | > 100 | > 100 µM | > 100 | > 100 | > 100 µM | – | – | – | – | – | – | – | – | – | –
10 | CC(C)=CCC/C(C)=C/CC/C(C)=C/Cc1c(O)c2ccccc2oc1=O | > 100 | – | > 100 | > 100 µM | > 100 | > 100 | > 100 µM | > 100 | – | > 100 µM | – | – | – | – | – | – | – | – | – | –
11 | O=Cc1ccccc1OCCOc1cc(OCCOc2ccccc2C=O)c(OCCOc2ccccc2C=O)cc1OCCOc1ccccc1C=O | > 100 | > 100 µM | > 100 | > 100 µM | > 82.9 | > 100 | > 100 µM | > 92.5 | – | > 100 µM | – | – | – | – | – | – | – | – | – | –
12 | N#Cc1nc(CCCCCN2C(=O)c3ccccc3C2=O)oc1N | > 100 | – | > 100 | > 100 µM | > 100 | > 100 | > 100 µM | > 100 | > 100 | > 100 µM | > 100 | – | – | – | – | – | – | – | – | –
13 | Cc1ccc(C(=O)O)c(CC2Cc3c(C)cccc3C2=O)c1 (centres undefined) | > 100 | – | > 100 | > 100 µM | > 100 | > 100 | > 100 µM | > 100 | > 100 | > 100 µM | > 100 | – | – | – | – | – | – | – | – | –
14 | Cc1cc(/C=C\c2ccc3ccccc3[n+]2C)c(O)c2ncccc12 | 1.34 | 3.01 µM | – | 2.38 µM | 27.4 | 1.11 | 7.82 µM | 2.15 | 4.22 | 0.569 µM | – | 0.182 µM | 0.18 µM | 0.413 µM | 0.176 µM | 0.494 | 0.167 | 0.671 | 0.584 | 0.902
15 | Cc1ccccc1-n1c(C)nc2c1C(=O)c1ccccc1C2=O | > 100 | > 100 µM | – | – | > 100 | > 100 | > 100 µM | > 100 | – | 61.8 µM | – | – | – | – | – | – | – | – | – | –
16 | CN(C)CCNC(=O)c1ccc(NCCCN(C)CCCNc2ccc3c(=O)n(CCN(C)C)c(=O)n4c5ccccc5c(=O)c2c34)c2c(=O)c3ccccc3[nH]c12 | 0.319 | 0.415 µM | 0.157 | 1.16 µM | 0.523 | 0.67 | 0.567 µM | 0.653 | – | 0.23 µM | 0.199 | – | – | – | – | – | – | – | – | –
